Assay results from the supplement of paper PMC10627819.

Experiments:
Assay in all cases: fitness (endpoint OD595 vs no drug) (fraction); higher = more growth
[1] = test system: B. subtilis 168
Outline: (§1)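 Cultures at OD595 0.01 were dispensed into 384-well plates in TSB, LB Lennox or CY and incubated at 37 °C. Every 30 min for 14 h, OD595 was read and corrected by the first reading. Fitness is the optical density at entry into stationary phase relative to the robust mean of no-drug control wells, capped at 1.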

[2] = test system: S. aureus DSM 20231
Outline: as §1

[3] = test system: S. aureus Newman
Outline: as §1

[4] = test system: S. pneumoniae D39V
Outline: as §1

N[C@@H]1CONC1=O [Cycloserine D] + CCC[C@@H]1C[C@@H](C(=O)N[C@@H]([C@H]2O[C@H](SC)[C@H](O)[C@@H](O)[C@H]2O)[C@@H](C)O)N(C)C1 [Lincomycin]
fitness
Conditions | first compound 0.125 µg/mL | first compound 0.25 µg/mL | first compound 0.375 µg/mL | first compound 0.5 µg/mL | first compound 0.75 µg/mL | first compound 1.5 µg/mL
[1], partner 0.1 µg/mL | 0.87 | 0.873 | – | 0.911 | – | –
[1], partner 0.2 µg/mL | 0.861 | 0.877 | – | 0.932 | – | –
[1], partner 0.4 µg/mL | 0.868 | 0.906 | – | 0.964 | – | –
[2], partner 0.1 µg/mL | – | – | 0.936 | – | 0.921 | 0.915
[2], partner 0.4 µg/mL | – | – | 0.278 | – | 0.271 | 0.247

fitness, [1], one replicate
Conditions | first compound 0.125 µg/mL | first compound 0.25 µg/mL | first compound 0.5 µg/mL
partner 0.8 µg/mL | 0.923 | 0.939 | 0.905
partner 1.6 µg/mL | 0.88 | 0.813 | 0.862

CCC[C@@H]1C[C@@H](C(=O)N[C@@H]([C@H]2O[C@H](SC)[C@H](O)[C@@H](O)[C@H]2O)[C@H](C)Cl)N(C)C1 [Clindamycin] + CC1=C(C(=O)O)N2C(=O)[C@@H](NC(=O)[C@H](N)c3ccccc3)[C@H]2SC1 [Cephalexin]
fitness, one replicate
Conditions | first compound 0.0039 µg/mL | first compound 0.0078 µg/mL | first compound 0.015 µg/mL | first compound 0.0156 µg/mL | first compound 0.03 µg/mL | first compound 0.06 µg/mL
[1], partner 0.25 µg/mL | ≥ 1 | 0.863 | – | 0.839 | – | –
[1], partner 0.5 µg/mL | 0.984 | 0.844 | – | 0.868 | – | –
[1], partner 1 µg/mL | 0.96 | 0.886 | – | 0.883 | – | –
[4], partner 0.125 µg/mL | – | – | 0.898 | – | 0.751 | 0.642
[4], partner 0.25 µg/mL | – | – | 0.87 | – | 0.799 | 0.667
[4], partner 0.5 µg/mL | – | – | 0.899 | – | 0.836 | 0.645

Conditions | fitness
[1], first compound 0.0625 µg/mL, partner 0.125 µg/mL | 0.556
[1], first compound 0.0625 µg/mL, partner 0.25 µg/mL | 0.465
[1], first compound 0.0625 µg/mL, partner 0.5 µg/mL | 0.482
[1], first compound 0.125 µg/mL, partner 0.125 µg/mL | 0.376
[1], first compound 0.125 µg/mL, partner 0.25 µg/mL | 0.344
[1], first compound 0.125 µg/mL, partner 0.5 µg/mL | 0.348
[1], first compound 0.25 µg/mL, partner 0.125 µg/mL | 0.351
[1], first compound 0.25 µg/mL, partner 0.25 µg/mL | 0.335
[1], first compound 0.25 µg/mL, partner 0.5 µg/mL | 0.34
[3], first compound 0.0312 µg/mL, partner 0.5 µg/mL | 0.795
[3], first compound 0.0312 µg/mL, partner 1 µg/mL | 0.82
[4], first compound 0.0125 µg/mL, partner 1 µg/mL | 0.733
[4], first compound 0.0125 µg/mL, partner 2 µg/mL | 0.453
[4], first compound 0.0125 µg/mL, partner 4 µg/mL | 0.0549
[4], first compound 0.025 µg/mL, partner 1 µg/mL | 0.519
[4], first compound 0.025 µg/mL, partner 2 µg/mL | 0.294
[4], first compound 0.025 µg/mL, partner 4 µg/mL | 0.0703
[4], first compound 0.05 µg/mL, partner 1 µg/mL | 0.179
[4], first compound 0.05 µg/mL, partner 2 µg/mL | 0.114
[4], first compound 0.05 µg/mL, partner 4 µg/mL | 0.0475

O=C(N[C@H](CO)[C@H](O)c1ccc([N+](=O)[O-])cc1)C(Cl)Cl [Chloramphenicol] + CC1(C)S[C@@H]2[C@H](NC(=O)Cc3ccccc3)C(=O)N2[C@H]1C(=O)O [Penicillin G]
fitness, [3]
Conditions | first compound 0.75 µg/mL | first compound 1.5 µg/mL | first compound 3 µg/mL
partner 0.0195 µg/mL | 0.744 | 0.494 | 0.187
partner 0.039 µg/mL | 0.742 | 0.475 | 0.173
partner 0.078 µg/mL | 0.72 | 0.477 | 0.181

O=C(O[C@@H]1Cc2c(O)cc(O)cc2O[C@@H]1c1cc(O)c(O)c(O)c1)c1cc(O)c(O)c(O)c1 [EGCG] + CC1=C(C(=O)O)N2C(=O)[C@@H](NC(=O)[C@H](N)c3ccccc3)[C@H]2SC1 [Cephalexin]
fitness
Conditions | first compound 6.25 µg/mL | first compound 12.5 µg/mL | first compound 25 µg/mL | first compound 50 µg/mL
[1], partner 0.125 µg/mL | 0.875 | 0.51 | 0.222 | –
[1], partner 0.25 µg/mL | 0.988 | – | – | –
[1], partner 0.5 µg/mL | 0.919 | – | – | –
[3], partner 0.25 µg/mL | – | 0.737 | 0.682 | 0.775
[3], partner 0.5 µg/mL | – | 0.776 | 0.762 | 0.739
[3], partner 1 µg/mL | – | 0.796 | 0.806 | 0.79
[4], partner 1 µg/mL | – | 0.669 | 0.72 | –
[4], partner 2 µg/mL | – | 0.0733 | 0.2 | 0.111
[4], partner 4 µg/mL | – | 0.0244 | 0.0566 | 0.0515

fitness, one replicate
Conditions | first compound 6.25 µg/mL | first compound 12.5 µg/mL | first compound 25 µg/mL | first compound 50 µg/mL
[1], partner 1 µg/mL | 0.993 | 0.862 | 0.697 | –
[4], partner 0.125 µg/mL | – | 0.926 | 0.96 | ≥ 1
[4], partner 0.25 µg/mL | – | 0.902 | 0.919 | 0.937
[4], partner 0.5 µg/mL | – | 0.932 | 0.98 | 0.957

N[C@@H]1CONC1=O [Cycloserine D] + C/C(=C\C(=O)OCCCCCCCCC(=O)O)C[C@@H]1OC[C@H](C[C@@H]2O[C@H]2[C@@H](C)[C@H](C)O)[C@@H](O)[C@H]1O [Pseudomonic acid]
fitness, [3], one replicate
Conditions | first compound 0.375 µg/mL | first compound 0.75 µg/mL | first compound 1.5 µg/mL
partner 0.0313 µg/mL | 0.0489 | 0.0331 | 0.0484
partner 0.0625 µg/mL | 0.0296 | 0.0319 | 0.0149
partner 0.125 µg/mL | 0.0371 | 0.0384 | 0.031

O=C(N[C@H](CO)[C@H](O)c1ccc([N+](=O)[O-])cc1)C(Cl)Cl [Chloramphenicol] + CO/N=C(\C(=O)N[C@@H]1C(=O)N2C(C(=O)O)=C(COC(N)=O)CS[C@H]12)c1ccco1 [Cefuroxime]
fitness, [3], one replicate
Conditions | first compound 0.75 µg/mL | first compound 1.5 µg/mL | first compound 3 µg/mL
partner 0.04875 µg/mL | 0.808 | 0.377 | –
partner 0.0975 µg/mL | 0.697 | 0.312 | 0.0949
partner 0.195 µg/mL | 0.64 | 0.206 | 0.065

C/C(=C\C(=O)OCCCCCCCCC(=O)O)C[C@@H]1OC[C@H](C[C@@H]2O[C@H]2[C@@H](C)[C@H](C)O)[C@@H](O)[C@H]1O [Pseudomonic acid] + CCN(CC)CCOC(=O)c1ccc(N)cc1 [Procaine]
fitness, [3], one replicate
Conditions | first compound 0.0313 µg/mL | first compound 0.0625 µg/mL | first compound 0.125 µg/mL
partner 85.5 µg/mL | 0.0858 | 0.046 | 0.0525
partner 171 µg/mL | 0.0636 | 0.045 | 0.0572
partner 342 µg/mL | 0.0723 | 0.0522 | 0.0551

fitness, [4]
Conditions | first compound 0.03 µg/mL | first compound 0.06 µg/mL | first compound 0.12 µg/mL
partner 85.5 µg/mL | 0.867 | 0.69 | 0.587
partner 171 µg/mL | 0.92 | 0.762 | 0.581
partner 342 µg/mL | 0.878 | 0.716 | 0.583
